Assay results taken from patent US20050255131A1, “Clindamycin compositions and delivery system therefor” (priority 2004, published 2005).

Columns and labels:
[1] = Storage stability of clindamycin phosphate solutions; assay type: physicochemical; conditions: solution in water; elevated temperatures
Text: For the clindamycin phosphate solution, a maximum of about 6% salt is soluble in water. This solution is not stable upon long-term storage at elevated temperatures. In order to utilize the chamber in a chamber delivery system wherein the contents of a small chamber are combined with the contents of a larger chamber, compositions containing a concentration of clindamycin phosphate higher than 6% are desirable. In accordance with the present disclosure, solutions containing concentrations of clindamycin in excess of 6% in a minimum amount of water may be prepared by using co-solvents such as glycerin. Clindamycin phosphate by itself is not soluble in glycerin alone. […] Thus, the present compositions may contain a solution of water, clindamycin and glycerin, wherein the amount of water is insufficient alone to solubilize the clindamycin. The term “solubilize” as used with respect to solubilizing clindamycin refers to the ability to dissolve clindamycin and optionally with heating and stirring and maintaining clindamycin in solution at room temperature for at least 24 hours.

[2] = Solubility of clindamycin phosphate in water, glycerin and water/glycerin co-solvent; assay type: physicochemical
Text: For the clindamycin phosphate solution, a maximum of about 6% salt is soluble in water. This solution is not stable upon long-term storage at elevated temperatures. In order to utilize the chamber in a chamber delivery system wherein the contents of a small chamber are combined with the contents of a larger chamber, compositions containing a concentration of clindamycin phosphate higher than 6% are desirable. In accordance with the present disclosure, solutions containing concentrations of clindamycin in excess of 6% in a minimum amount of water may be prepared by using co-solvents such as glycerin. Clindamycin phosphate by itself is not soluble in glycerin alone. […] Thus, the present compositions may contain a solution of water, clindamycin and glycerin, wherein the amount of water is insufficient alone to solubilize the clindamycin. The term “solubilize” as used with respect to solubilizing clindamycin refers to the ability to dissolve clindamycin and optionally with heating and stirring and maintaining clindamycin in solution at room temperature for at least 24 hours. […] By increasing the concentration of clindamycin in solution by means of a co-solvent such as glycerin, the present methods make it possible to dissolve the salt in a small amount of water. […]

stability of aqueous solution upon long-term storage [1]: not stable
solubility in glycerin alone ([2]; glycerin alone, no water): not soluble
maximum salt soluble in water ([2]; water alone): about 6%
Compound: CCC[C@@H]1C[C@@H](C(=O)N[C@@H]([C@H]2O[C@H](SC)[C@H](OP(=O)(O)O)[C@@H](O)[C@H]2O)[C@H](C)Cl)N(C)C1 [clindamycin phosphate]
